Converted amounts (≈) assume the structure as drawn.
What was measured:
Type in all cases: functional
Enterococcus faecalis [1] = experiment: Antimicrobial activity against Enterococcus faecalis GC 2242 (VRE)
[2] = Inhibitory activity against MurA from Escherichia coli
Staphylococcus aureus [3] = experiment: Antimicrobial activity against Staphylococcus aureus GC 2216 (ATCC)
Escherichia coli [4] = experiment: Antimicrobial activity against Escherichia coli GC 4559
Staphylococcus aureus [5] = experiment: Antimicrobial activity against Staphylococcus aureus GC 1131 (MRSA)
[6] = Inhibitory activity against MurB from Staphylococcus aureus
Staphylococcus aureus [7] = experiment: Antimicrobial activity against Staphylococcus aureus GC 4543 (MSSA)
Enterococcus faecalis [8] = experiment: Antimicrobial activity against Enterococcus faecalis GC 4555 (ATCC)
Streptococcus pneumoniae [9] = experiment: Antimicrobial activity against Streptococcus pneumoniae GC1894 (PRSP) in the presence of 4% bovine serum albumin
[10] = Antimicrobial activity against MSCNS (methicillin-susceptible coagulase-negative staphylococci) GC 646; details: Staphylococcus
[11] = Inhibitory activity against MurB from Escherichia coli
Escherichia coli [12] = experiment: Antimicrobial activity against Escherichia coli GC 4560
Streptococcus pneumoniae [13] = experiment: Antimicrobial activity against Streptococcus pneumoniae GC1894 (PRSP)

Row | SMILES | MIC (Enterococcus faecalis [1]) | IC50 [2] | MIC (Staphylococcus aureus [3]) | MIC (Escherichia coli [4]) | MIC (Staphylococcus aureus [5]) | IC50 [6] | MIC (Staphylococcus aureus [7]) | MIC (Enterococcus faecalis [8]) | MIC (Streptococcus pneumoniae [9]) | MIC [10] | IC50 [11] | MIC (Escherichia coli [12]) | MIC (Streptococcus pneumoniae [13])
1 | N#Cc1cnc(NC(=O)Nc2ccc(Cl)c(Cl)c2)s1 | 0.5 µg/mL (≈ 1.6 µM) | 12.6 µg/mL (≈ 40.2 µM) | 0.5 µg/mL (≈ 1.6 µM) | > 128 µg/mL | 1 µg/mL (≈ 3.19 µM) | 5.6 µg/mL (≈ 17.9 µM) | 0.5 µg/mL (≈ 1.6 µM) | 1 µg/mL (≈ 3.19 µM) | 128 µg/mL | 1 µg/mL (≈ 3.19 µM) | 4.5 µg/mL (≈ 14.4 µM) | 4 µg/mL (≈ 12.8 µM) | < 0.12 µg/mL
2 | N#Cc1cnc(NC(=O)OCc2ccc(Cl)c(Cl)c2)s1 | 64 µg/mL (≈ 195 µM) | > 25 µg/mL | > 128 µg/mL | > 128 µg/mL | > 128 µg/mL | 24 µg/mL (≈ 73.1 µM) | > 128 µg/mL | 64 µg/mL (≈ 195 µM) | > 128 µg/mL | > 128 µg/mL | > 25 µg/mL | > 128 µg/mL | 128 µg/mL (≈ 390 µM)
3 | CC(C)(C)c1nc(NC(=O)OCc2ccc(Cl)c(Cl)c2)sc1C#N | 1 µg/mL (≈ 2.6 µM) | 25 µg/mL (≈ 65.1 µM) | 8 µg/mL (≈ 20.8 µM) | > 128 µg/mL | 2 µg/mL (≈ 5.2 µM) |  | 1 µg/mL (≈ 2.6 µM) | 2 µg/mL (≈ 5.2 µM) | > 128 µg/mL | > 128 µg/mL | 18 µg/mL (≈ 46.8 µM) | > 128 µg/mL | 0.25 µg/mL (≈ 0.651 µM)
4 | N#Cc1cnc(NC(=O)Nc2ccc(F)c(F)c2)s1 | 4 µg/mL (≈ 14.3 µM) | > 25 µg/mL | 4 µg/mL (≈ 14.3 µM) | 8 µg/mL (≈ 28.5 µM) | 4 µg/mL (≈ 14.3 µM) |  | 2 µg/mL (≈ 7.14 µM) | 4 µg/mL (≈ 14.3 µM) | 64 µg/mL | 4 µg/mL (≈ 14.3 µM) | 19 µg/mL (≈ 67.8 µM) | 4 µg/mL (≈ 14.3 µM) | 0.5 µg/mL (≈ 1.78 µM)
5 | COc1nc(NC(=O)Nc2ccc(Cl)c(Cl)c2)sc1C#N | 4 µg/mL (≈ 11.7 µM) | 21.6 µg/mL (≈ 62.9 µM) | > 128 µg/mL | > 128 µg/mL | > 128 µg/mL |  | > 128 µg/mL | 32 µg/mL (≈ 93.2 µM) | > 128 µg/mL | > 128 µg/mL | 9.8 µg/mL (≈ 28.6 µM) | > 128 µg/mL | > 128 µg/mL
6 | N#Cc1cnc(NC(=O)NCc2ccc(Cl)c(Cl)c2)s1 | 64 µg/mL (≈ 196 µM) | > 25 µg/mL | > 128 µg/mL | > 128 µg/mL | > 128 µg/mL | 24 µg/mL (≈ 73.4 µM) | > 128 µg/mL | > 128 µg/mL | 128 µg/mL | > 128 µg/mL | > 25 µg/mL | > 128 µg/mL | 64 µg/mL (≈ 196 µM)
7 | CC(C)(C)c1nc(NC(=O)Nc2ccc(Cl)c(Cl)c2)sc1C#N | < 0.12 µg/mL | 3.3 µg/mL (≈ 8.94 µM) | < 0.12 µg/mL | > 128 µg/mL | < 0.12 µg/mL | 2.8 µg/mL (≈ 7.58 µM) | < 0.12 µg/mL | 0.25 µg/mL (≈ 0.677 µM) | 128 µg/mL | < 0.12 µg/mL | 6.2 µg/mL (≈ 16.8 µM) | 0.5 µg/mL (≈ 1.35 µM) | < 0.12 µg/mL
8 | Cc1ccc(NC(=O)Nc2nc(C(C)(C)C)c(C#N)s2)cc1C | 0.5 µg/mL (≈ 1.52 µM) | > 25 µg/mL | 0.25 µg/mL (≈ 0.761 µM) | > 128 µg/mL | 0.5 µg/mL (≈ 1.52 µM) | 6.3 µg/mL (≈ 19.2 µM) | 0.25 µg/mL (≈ 0.761 µM) | 0.5 µg/mL (≈ 1.52 µM) | 128 µg/mL | 0.5 µg/mL (≈ 1.52 µM) | 6.2 µg/mL (≈ 18.9 µM) | 2 µg/mL (≈ 6.09 µM) | < 0.12 µg/mL
9 | O=C(Nc1ccc(Cl)c(Cl)c1)Nc1nccs1 | 4 µg/mL (≈ 13.9 µM) | 20 µg/mL (≈ 69.4 µM) | 2 µg/mL (≈ 6.94 µM) | > 128 µg/mL | 2 µg/mL (≈ 6.94 µM) | > 25 µg/mL | 2 µg/mL (≈ 6.94 µM) | 4 µg/mL (≈ 13.9 µM) | > 128 µg/mL | 2 µg/mL (≈ 6.94 µM) | > 25 µg/mL | 0.5 µg/mL (≈ 1.74 µM) | 0.5 µg/mL (≈ 1.74 µM)
10 | CC(C)(C)c1nc(NC(=O)NCc2ccc(Cl)c(Cl)c2)sc1C#N | 0.5 µg/mL (≈ 1.3 µM) | 20.8 µg/mL (≈ 54.3 µM) | 0.25 µg/mL (≈ 0.652 µM) | > 128 µg/mL | 1 µg/mL (≈ 2.61 µM) | 11 µg/mL (≈ 28.7 µM) | 0.5 µg/mL (≈ 1.3 µM) | 1 µg/mL (≈ 2.61 µM) | 128 µg/mL | 1 µg/mL (≈ 2.61 µM) | > 25 µg/mL | 2 µg/mL (≈ 5.22 µM) | < 0.12 µg/mL
11 | CC(C)COc1nc(NC(=O)Nc2ccc(Cl)c(Cl)c2)sc1C#N | 0.25 µg/mL (≈ 0.649 µM) | > 25 µg/mL | 0.5 µg/mL (≈ 1.3 µM) | > 128 µg/mL | 0.5 µg/mL (≈ 1.3 µM) |  | 0.25 µg/mL (≈ 0.649 µM) | 0.25 µg/mL (≈ 0.649 µM) | 128 µg/mL | 0.25 µg/mL (≈ 0.649 µM) | 5.8 µg/mL (≈ 15.1 µM) | > 128 µg/mL | < 0.12 µg/mL
12 | N#Cc1sc(NC(=O)Nc2ccc(Cl)c(Cl)c2)nc1Cl | 0.25 µg/mL (≈ 0.719 µM) | > 25 µg/mL | 0.25 µg/mL (≈ 0.719 µM) | > 128 µg/mL | 0.5 µg/mL (≈ 1.44 µM) | > 25 µg/mL | 0.25 µg/mL (≈ 0.719 µM) | 0.5 µg/mL (≈ 1.44 µM) | > 128 µg/mL | 0.5 µg/mL (≈ 1.44 µM) | > 25 µg/mL | 0.5 µg/mL (≈ 1.44 µM) | < 0.12 µg/mL
13 | N#Cc1csc(NC(=O)Nc2ccc(Cl)c(Cl)c2)n1 | 2 µg/mL (≈ 6.39 µM) | > 25 µg/mL | 4 µg/mL (≈ 12.8 µM) | > 128 µg/mL | 8 µg/mL (≈ 25.5 µM) | 14 µg/mL (≈ 44.7 µM) | 4 µg/mL (≈ 12.8 µM) | 8 µg/mL (≈ 25.5 µM) | 128 µg/mL | 4 µg/mL (≈ 12.8 µM) | > 25 µg/mL | 8 µg/mL (≈ 25.5 µM) | < 0.12 µg/mL
14 | O=C(Nc1ccc(Cl)c(Cl)c1)Nc1ncc([N+](=O)[O-])s1 | 1 µg/mL (≈ 3 µM) | 4.6 µg/mL (≈ 13.8 µM) | 0.25 µg/mL (≈ 0.75 µM) | > 128 µg/mL | 1 µg/mL (≈ 3 µM) | 3 µg/mL (≈ 9 µM) | 0.5 µg/mL (≈ 1.5 µM) | 1 µg/mL (≈ 3 µM) | 128 µg/mL | 0.5 µg/mL (≈ 1.5 µM) | 3.8 µg/mL (≈ 11.4 µM) | 2 µg/mL (≈ 6 µM) | 0.25 µg/mL (≈ 0.75 µM)
15 | CN[C@H](CC(C)C)C(=O)N[C@H]1C(=O)N[C@@H](CC(N)=O)C(=O)N[C@H]2C(=O)N[C@H]3C(=O)N[C@H](C(=O)N[C@H](C(=O)O)c4cc(O)cc(O)c4-c4cc3ccc4O)[C@H](O)c3ccc(c(Cl)c3)Oc3cc2cc(c3O[C@@H]2O[C@H](CO)[C@@H](O)[C@H](O)[C@H]2O[C@H]2C[C@](C)(N)[C@H](O)[C@H](C)O2)Oc2ccc(cc2Cl)[C@H]1O [VANCOMYCIN] | > 128 µg/mL |  |  | > 128 µg/mL |  |  |  | 2 µg/mL (≈ 1.38 µM) |  |  |  | 0.25 µg/mL (≈ 0.173 µM) | < 0.12 µg/mL
16 | CCOc1nc(NC(=O)Nc2ccc(Cl)c(Cl)c2)sc1C#N | 0.5 µg/mL (≈ 1.4 µM) | > 25 µg/mL | 0.5 µg/mL (≈ 1.4 µM) | > 128 µg/mL | 1 µg/mL (≈ 2.8 µM) |  | 0.5 µg/mL (≈ 1.4 µM) | > 128 µg/mL | 128 µg/mL | 0.5 µg/mL (≈ 1.4 µM) | 23 µg/mL (≈ 64.4 µM) | 0.5 µg/mL (≈ 1.4 µM) | < 0.12 µg/mL
17 | CC(C)(C)c1nc(NC(=O)Nc2ccc(F)c(F)c2)sc1C#N | 0.5 µg/mL (≈ 1.49 µM) | > 25 µg/mL | < 0.12 µg/mL | > 128 µg/mL | < 0.12 µg/mL |  | < 0.12 µg/mL | 1 µg/mL (≈ 2.97 µM) | 128 µg/mL | 0.5 µg/mL (≈ 1.49 µM) | > 25 µg/mL | 1 µg/mL (≈ 2.97 µM) | < 0.12 µg/mL

— ChEMBL document CHEMBL1137071, “Phenyl thiazolyl urea and carbamate derivatives as new inhibitors of bacterial cell-wall biosynthesis” (Bioorg Med Chem Lett, 2004)
